Results on 17 compounds are retold here after PMC11720106, “Synthesis of Pyrazole-Based Inhibitors of the Bacterial Enzyme N-Succinyl-L,L-2,6-Diaminopimelic Acid Desuccinylase (DapE) as Potential Antibiotics” (International Journal of Molecular Sciences, 2024).

“And” between values parts separate entries of the source, which are not always exact repeats. Identical values can stand only once.

Assay [1] deals with T1, HiDapE (Haemophilus influenzae, UniProt P44514). Description: Discontinuous ninhydrin-based HiDapE inhibition assay. The class given is biochemical. The settings on record: 8 nM HiDapE, 2 mM N6-methyl-L,L-SDAP; for inhibition at 100 µM: pH 7.5, 100 μM inhibitor; for IC50: 5–200 μM inhibitor. The method, then:
Inhibitory Assay Protocol: A discontinuous inhibition assay was performed utilizing a Techne PCR Thermal Cycler System. The volume of each component was adjusted to fit a total reaction volume of 100 μL. The final potential inhibitor concentration was 100 μM for pyrazoles 7a–7r for screening experiments or 5–200 μM for IC50 experiments. All potential inhibitors were dissolved in neat dimethylsulfoxide (DMSO), and the pre-assay concentrations were adjusted to give a final concentration of 5% DMSO in the assay. The final HiDapE concentration was 8 nM. To a 50 mM HEPES (pH 7.5) buffered solution at 30 °C was added the selected inhibitor followed by HiDapE and incubated for 10 min. N^6-Methyl-L,L-SDAP (2 mM) was added, and the mixture was allowed to react for 10 min, followed by heating at 100 °C for 1 min and then cooled to 0 °C for 1 min. A 2% ninhydrin solution (100 μL) was added, and the mixture was mixed well by rapid pipetting while cooled at 0 °C. The reaction was then heated at 80 °C for 15 min. The absorbance of an 80 μL aliquot was recorded at 570 nm on a BioTek Synergy 2 microplate reader (Biotek Instruments, Winooski, VT, USA). All inhibition assays were performed in triplicate. The data were then exported and analyzed using Prism (version 10.4.1, GraphPad Prism, Boston, MA, USA).

Assay [2] has as its target T1, HiDapE. Description: Discontinuous kinetic competition assay with HiDapE. In kind it is biochemical. The method, then:
We performed kinetic competition assays to investigate and confirm the binding mode of the pyrazole inhibitors. […] The velocity of the HiDapE enzyme was measured with different concentrations of substrate from 0 to 100 μM, and the plot is shown in Figure 2. After running the AICc statistical analysis to compare noncompetitive and competitive models, it was determined that a competitive binding mode is over 100 times more likely than noncompetitive binding with a 99.2% probability.
Kinetic assay Protocol: A discontinuous kinetic assay was performed utilizing a Techne PCR Thermal Cycler System. The volume of each component was adjusted to fit a total reaction volume of 100 μL. The final potential inhibitor concentration was 0, 20, 40, 60, and 100 μM for pyrazole 7r, where the inhibitor was dissolved in dimethylsulfoxide (DMSO), and the pre-assay concentrations were adjusted to give a final concentration of 5% DMSO in the assay. The in-assay HiDapE concentration was 8 nM. To a 50 mM HEPES (pH 7.5) buffered solution at 30 °C was added the selected inhibitor followed by HiDapE and incubated for 10 min. N^6-Methyl-L,L-SDAP at varied concentrations (0–8 mM) were added, and the mixture was allowed to react for 10 min, followed by heating at 100 °C for 1 min and then cooled to 0 °C for 1 min. A 2% ninhydrin solution (50 μL) was added, and the mixture was mixed well by rapid pipetting while cooled at 0 °C. The reaction was then heated at 80 °C for 15 min. The absorbance of an 80 μL aliquot was recorded at 570 nm on a BioTek Synergy 2 microplate reader. All concentrations were performed in triplicate. The data were then exported and analyzed using Prism using a non-linear regression Michaelis–Menten equation and using AICc statistical analysis to determine which inhibitory binding mode was preferred.

The target of assay [3] is T1, HiDapE. Description: Thermal shift assay (SYPRO Orange). In kind it is binding. To be noted: for Tm1 (HiDapE): 200 nM enzyme, 10X dye. The protocol: A thermal shift assay was conducted to observe changes in the thermal stability of DapE under various concentrations of the inhibitor (R)-7q, as summarized in Table 2. These studies were conducted on a Step One Real-Time PCR System^TM (Applied Biosystems, Waltham, MA, USA) and associated QuantStudio software (Version 7) through the fluorescence of the SYPRO Orange dye (Fisher Scientific, Waltham, MA, USA) during protein denaturation. We also used the thermal shift assay results to calculate the Ki value of pyrazole (R)-7q. […] Additionally, we observed a subsequent Tm2 at 78.0 °C involving a destabilization of the enzyme, as shown by the approximate −3 °C negative shift in melt temperature as the inhibitor increases in concentration, indicating at this elevated temperature that the inhibitor is binding to primarily the molten globule state. We have previously observed the second melt temperature with the DapE enzyme.
Thermal Shift Assay Protocol: Thermal shift studies were conducted on a Step One Real-Time PCR System and the associated QuantStudio software. Protein denaturation was measured by detecting the change in fluorescence of the SYPRO Orange dye. HiDapE was used at a final concentration of 200 nM, and SYPRO Orange was used at a final concentration of 10×. The experiment was carried out in 10 μL triplicates in 50 mM HEPES buffer at pH 7.5 in nanopure water, and the inhibitor concentrations were selected based on the half-maximal inhibitory concentration (IC50) values of the inhibitor. Sample solutions were dispensed into a 96-well optical reaction plate (Thermo Fisher Scientific, Kalamazoo, MI, USA), and the plate was sealed with an optical PCR plate sheet (Thermo Fisher Scientific, Kalamazoo, MI, USA). The assay was run according to Bhayani. Melting curves were obtained from the negative derivative and exported from the instrument to Microsoft Excel (Version 2402). The negative first derivatives of the melting curves were differentiated into the […]. Tm values were plotted against the log [concentration], and the Ki values were calculated using a derived Van’t Hoff equation according to Bhayani

T1 sequence (P44514 whole entry): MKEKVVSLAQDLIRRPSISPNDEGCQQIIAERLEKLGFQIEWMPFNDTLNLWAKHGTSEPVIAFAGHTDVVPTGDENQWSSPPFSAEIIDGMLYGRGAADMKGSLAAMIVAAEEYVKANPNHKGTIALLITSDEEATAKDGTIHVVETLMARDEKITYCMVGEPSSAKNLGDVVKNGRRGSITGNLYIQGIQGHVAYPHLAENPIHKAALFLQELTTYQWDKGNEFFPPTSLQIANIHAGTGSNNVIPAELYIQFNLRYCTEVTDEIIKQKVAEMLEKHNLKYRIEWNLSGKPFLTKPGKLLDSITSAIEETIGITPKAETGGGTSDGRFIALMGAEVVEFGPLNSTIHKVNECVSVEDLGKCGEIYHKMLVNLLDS

Turning to `Cc1cc(S[C@@H](C)C(=O)Nc2ccccn2)n(-c2ccccc2)n1` [Compound 7r, (S)-2-((3-Methyl-1-phenyl-1H-pyrazol-5-yl)thio)-N-(pyridine-2-yl)propanamide], at HiDapE [1] (triplicate), the inhibition at 100 µM turned out to be 14.6 ± 9.5%.
As for `Cc1cc(SC(C)C(=O)Nc2ccccn2)n(-c2ccccc2)n1` (centres unmarked) [Compound 7p, 2-((3-Methyl-1-phenyl-1H-pyrazol-5-yl)thio)-N-(pyridine-2-yl)propanamide], the 50% inhibitory concentration (IC50) on HiDapE [1] (pH 7.5) is 35.6 µM and 35.7 µM. In addition, on HiDapE [1] (triplicate), the inhibition at 100 µM came out at 97.4 ± 2%.
Take `Cc1cc(SC(C)C(=O)Nc2ccon2)n(-c2ccccc2)n1` (centres unmarked) [Compound 7m, N-(Isoxazol-3-yl)-2-((3-methyl-1-phenyl-1H-pyrazol-5-yl)thio)propanamide]: the inhibition at 100 µM at HiDapE [1] (triplicate) is 19.5 ± 0.1%.
For `Cc1cc(S[C@H](C)C(=O)Nc2ccccn2)n(-c2ccccc2)n1` [Compound 7q, (R)-2-((3-Methyl-1-phenyl-1H-pyrazol-5-yl)thio)-N-(pyridine-2-yl)propanamide], the “% Inhibition at 100 μM” value on HiDapE [1] (100 μM inhibitor, pH 7.5, triplicate) came to 99.1 ± 1.6%. Also, the IC50 on HiDapE [1] (pH 7.5) was 18.8 µM. For the same compound, the inhibition at 100 µM on HiDapE [1] (triplicate) was 99%. Further, the “binding mode (mode of inhibition)” value on HiDapE [2] (AICc comparison of competitive and noncompetitive models) was “competitive”. Also, the “likelihood of competitive over noncompetitive binding” value on HiDapE [2] (AICc statistical analysis) is “over 100 times”. Also, the “probability of competitive binding mode” value at HiDapE [2] (AICc statistical analysis) is 99.2%. Also, the “Tm1 (HiDapE)” value was 50.8 +/− 0.6 °C at HiDapE [3] (1 μM inhibitor); 50.1 +/− 0.1 °C at HiDapE [3] (5 μM inhibitor); 50.2 +/− 0.1 °C on HiDapE [3] (10 μM inhibitor); 52.7 +/− 0.3 °C on HiDapE [3] (20 μM inhibitor); 55.7 +/− 0.3 °C at HiDapE [3] (40 μM inhibitor); 60.6 +/− 0.7 °C at HiDapE [3] (60 μM inhibitor). Besides, the results for the “Tm1 (HiDapE)” value at HiDapE [3] (80 μM inhibitor) and on HiDapE [3] (100 μM inhibitor) were 61.3 +/− 0.5 °C and 63.1 +/− 0.2 °C, respectively. The Tm at HiDapE [3] (as stated in the abstract) worked out at 50.2 °C. Further, the Ki on HiDapE [3] (calculated from positive melt temperature shift at Tm1, Van't Hoff equation) is 17.3 ± 2.8 µM. Moreover, the “shift in melt temperature at Tm2” value on HiDapE [3] (negative shift as the inhibitor increases in concentration, Tm2 78.0 °C) is roughly −3 °C. At HiDapE [3] (positive shift as the inhibitor increases in concentration, Tm1 50.2 °C), the “shift in melt temperature at Tm1” value is “+13 °C”.
`CCN(CC)C(=O)CSc1cc(C)nn1-c1ccccc1` [Compound 7j, N,N-Diethyl-2-((3-methyl-1-phenyl-1H-pyrazol-5-yl)thio)acetamide]: the inhibition at 100 µM at HiDapE [1] (triplicate) turned out to be 47.4 ± 7.2%.
For `Cc1cc(SCC(=O)Nc2ncccn2)n(-c2ccccc2)n1` [Compound 7g, 2-((3-Methyl-1-phenyl-1H-pyrazol-5-yl)thio)-N-(pyrimidin-2-yl)acetamide], the inhibition at 100 µM at HiDapE [1] (triplicate) turned out to be 32.4 ± 3.4%.
`Cc1cc(SCC(=O)Nc2cnccn2)n(-c2ccccc2)n1` [Compound 7h, 2-((3-Methyl-1-phenyl-1H-pyrazol-5-yl)thio)-N-(pyrazin-2-yl)acetamide]: on HiDapE [1] (pH 7.5), the IC50 was 20.2 µM. In addition, the inhibition at 100 µM at HiDapE [1] (triplicate) came out at 96.2%.
For the compound `Cc1ccc(NC(=O)CSc2cc(C)nn2-c2ccccc2)nc1` [Compound 7e, 2-((3-Methyl-1-phenyl-1H-pyrazol-5-yl)thio)-N-(5-methylpyridin-2-yl)acetamide], at HiDapE [1] (triplicate), the inhibition at 100 µM came out at 64.3 ± 5.5%.
As for `Cc1cc(SC(C)C(=O)Nc2ccccc2)n(-c2ccccc2)n1` (centres unmarked) [Compound 7n, 2-((3-Methyl-1-phenyl-1H-pyrazol-5-yl)thio)-N-phenylpropanamide], the inhibition at 100 µM at HiDapE [1] (triplicate) worked out at 79.4 ± 3.6%.
Consider `Cc1cc(SC(C)C(=O)Nc2nccs2)n(-c2ccccc2)n1` (centres unmarked) [Compound 7l, 2-((3-Methyl-1-phenyl-1H-pyrazol-5-yl)thio)-N-(thiazol-2-yl)propanamide], for which the inhibition at 100 µM on HiDapE [1] (triplicate) was 28 ± 1.8%.
For the compound `Cc1cc(SCC(=O)Nc2ccon2)n(-c2ccccc2)n1` [Compound 7b, N-(Isoxazol-3-yl)-2-((3-methyl-1-phenyl-1H-pyrazol-5-yl)thio)acetamide], the inhibition at 100 µM at HiDapE [1] (triplicate) was 20.3 ± 3.6%.
For `Cc1cc(SC(C)C(=O)NCc2ccccc2)n(-c2ccccc2)n1` (centres unmarked) [Compound 7o, N-Benzyl-2-((3-methyl-1-phenyl-1H-pyrazol-5-yl)thio)propanamide], the inhibition at 100 µM at HiDapE [1] (triplicate) amounted to 63.2 ± 1.8%.
`Cc1cc(SCC(=O)Nc2ccccc2)n(-c2ccccc2)n1` [Compound 7c, 2-((3-Methyl-1-phenyl-1H-pyrazol-5-yl)thio)-N-phenylacetamide]: the inhibition at 100 µM on HiDapE [1] (triplicate) amounted to 80.5 ± 3%.
As for `Cc1cc(SCC(=O)Nc2ccc(Cl)cn2)n(-c2ccccc2)n1` [Compound 7f, N-(5-Chloropyridin-2-yl)-2-((3-methyl-1-phenyl-1H-pyrazol-5-yl)thio)acetamide], the inhibition at 100 µM at HiDapE [1] (triplicate) was 54.2 ± 0.3%.
As to `Cc1cc(SCC(=O)Nc2ccccn2)n(-c2ccccc2)n1` [Compound 7d, 2-((3-Methyl-1-phenyl-1H-pyrazol-5-yl)thio)-N-(pyridine-2-yl)acetamide], the concentration for half-maximal inhibition (IC50) at HiDapE [1] (pH 7.5) is 17.9 µM. Also, the inhibition at 100 µM at HiDapE [1] (triplicate) was found to be 85.7 ± 1.2%.
In the case of `Cc1cc(SCC(=O)Nc2nccs2)n(-c2ccccc2)n1` [Compound 7a, 2-((3-Methyl-1-phenyl-1H-pyrazol-5-yl)thio)-N-(thiazol-2-yl)acetamide], the IC50 at HiDapE [1] (pH 7.5) is 22.4 µM. The inhibition at 100 µM on HiDapE [1] (triplicate) was 95.2 ± 0.6%.
For the compound `Cc1cc(SCC(=O)Nc2nc3ccccc3[nH]2)n(-c2ccccc2)n1` [Compound 7k, N-(1H-Benzo[d]imidazol-2-yl)-2-((3-methyl-1-phenyl-1H-pyrazol-5-yl)thio)acetamide], at HiDapE [1] (triplicate), the inhibition at 100 µM came out at 36.9 ± 2.7%.
